The conditions of series [1]: cn_pd bond, 14-membered ring.
For series [2], the target named is human TYK2 (JH2domain-pseudokinase) (Homo sapiens (Human), UniProt P29597). As to the kind of experiment: TYK2 JH2 domain binding assay (KINOMEscan). How it is done: Binding constants for the compounds described herein against the JH2 domain were determined by the following protocol for a KINOMEscan® assay (DiscoveRx). A fusion protein of a partial length construct of human TYK2 (JH2domain-pseudokinase) (amino acids G556 to D888 based on reference sequence NP_003322.3) and the DNA binding domain of NFkB was expressed in transiently transfected HEK293 cells. From these HEK 293 cells, extracts were prepared in M-PER extraction buffer (Pierce) in the presence of Protease Inhibitor Cocktail Complete (Roche) and Phosphatase Inhibitor Cocktail Set II (Merck) per manufacturers' instructions. The TYK2 (JH2domain-pseudokinase) fusion protein was labeled with a chimeric double-stranded DNA tag containing the NFkB binding site fused to an amplicon for qPCR readout, which was added directly to the expression extract (the final concentration of DNA-tag in the binding reaction is 0.1 nM).
human TYK2 (JH2domain-pseudokinase), sequence (P29597 556-888): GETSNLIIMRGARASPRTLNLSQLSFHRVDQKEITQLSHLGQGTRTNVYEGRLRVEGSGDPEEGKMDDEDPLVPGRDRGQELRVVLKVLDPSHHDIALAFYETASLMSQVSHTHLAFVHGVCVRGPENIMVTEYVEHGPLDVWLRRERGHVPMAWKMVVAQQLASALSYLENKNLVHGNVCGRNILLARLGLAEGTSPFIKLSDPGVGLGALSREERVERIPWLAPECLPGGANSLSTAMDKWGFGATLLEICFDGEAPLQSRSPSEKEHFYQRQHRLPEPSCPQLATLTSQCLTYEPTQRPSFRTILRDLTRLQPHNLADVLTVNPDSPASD
Streptavidin-coated magnetic beads (Dynal M280) were treated with a biotinylated small molecule ligand for 30 minutes at room temperature to generate affinity resins the binding assays. The liganded beads were blocked with excess biotin and washed with blocking buffer (SeaBlock (Pierce), 1% BSA, 0.05% Tween 20, 1 mM DTT) to remove unbound ligand and to reduce nonspecific binding.
The binding reaction was assembled by combining 16 μl of DNA-tagged kinase extract, 3.8 μl liganded affinity beads, and 0.18 μl test compound (PBS/0.05% Tween 20/10 mM DTT/0.1% BSA/2 μg/ml sonicated salmon sperm DNA)]. Extracts were used directly in binding assays without any enzyme purification steps at a ≥10,000-fold overall stock dilution (final DNA-tagged enzyme concentration <0.1 nM). Extracts were loaded with DNA-tag and diluted into the binding reaction in a two-step process. First extracts were diluted 1:100 in 1×binding buffer (PBS/0.05% Tween 20/10 mM DTT/0.1% BSA/2 […] sonicated salmon sperm DNA) containing 10 nM DNA-tag. This dilution was allowed to equilibrate at room temperature for 15 minutes and then subsequently diluted 1:100 in 1× binding buffer. Test compounds were prepared as 111× stocks in 100% DMSO. Kds were determined using an 11-point 3-fold compound dilution series with three DMSO control points. All compounds for Kd measurements were distributed by acoustic transfer (non-contact dispensing) in 100% DMSO. The compounds were then diluted directly into the assays such that the final concentration of DMSO was 0.9%. All reactions were performed in polypropylene 384-well plates. Each was a final volume of 0.02 mL. Assays were incubated with shaking for 1 hour at room temperature. Then the beads were pelleted and washed with wash buffer (1×PBS, 0.05% Tween 20) to remove displaced kinase and test compound. The washed based were resuspended in elution buffer (1 λPBS, 0.05% Tween […] non-biotinylated affinity ligand) and incubated at room temperature with shaking for 30 minutes. The kinase concentration in the eluates was measured by qPCR. qPCR reactions were assembled by adding 2.5 μL of kinase eluate to 7.5 μL of qPCR master mix containing […] amplicon primers and 0.15 μM amplicon probe. The qPCR protocol consisted of a 10 minute hot start at 95° C., followed by 35 cycles of 95° C. for 15 seconds, 60° C. for 1 minute.
Test compounds were prepared as 111× stocks in 100% DMSO. Kds were determined using an 11-point 3-fold compound dilution series with three DMSO control points. All compounds for Kd measurements were distributed by acoustic transfer (non-contact dispensing) in 100% DMSO. The compounds were then diluted directly into the assays such that the final concentration of DMSO was 0.9%. The Kds were determined using a compound top concentration of 30,000 nM. Kd measurements were performed in duplicate.
Binding constants (Kds) were calculated with a standard dose-response curve using the Hill equation: […]
The Hill Slope was set to −1. […]

A further series has as its target TYK2 JH1 (Homo sapiens (Human), UniProt P29597). As to the kind of experiment: TYK2 JH1 binding (Kd, Table 2). The note with it: JH1 domain.
The next series deals with JAK1 JH2 (Homo sapiens (Human), UniProt P23458). As to the kind of experiment: JAK1 JH2 binding (Kd, Table 2). The note with it: JH2 domain.
JAK1 JH2, sequence (P23458 583-855): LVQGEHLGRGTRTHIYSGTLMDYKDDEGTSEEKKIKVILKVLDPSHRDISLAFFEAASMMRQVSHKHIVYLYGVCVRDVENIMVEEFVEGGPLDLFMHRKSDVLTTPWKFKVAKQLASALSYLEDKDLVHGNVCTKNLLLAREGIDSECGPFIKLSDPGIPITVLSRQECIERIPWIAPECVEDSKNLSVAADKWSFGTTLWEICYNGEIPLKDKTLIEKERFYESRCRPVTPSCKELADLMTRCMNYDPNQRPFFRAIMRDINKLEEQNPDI
The target of a further series is JAK3 JH1 (Homo sapiens (Human), UniProt P52333). As to the kind of experiment: JAK3 JH1 binding (Kd, Table 2). The note with it: JH1 domain.
JAK3 JH1, sequence (P52333 822-1111): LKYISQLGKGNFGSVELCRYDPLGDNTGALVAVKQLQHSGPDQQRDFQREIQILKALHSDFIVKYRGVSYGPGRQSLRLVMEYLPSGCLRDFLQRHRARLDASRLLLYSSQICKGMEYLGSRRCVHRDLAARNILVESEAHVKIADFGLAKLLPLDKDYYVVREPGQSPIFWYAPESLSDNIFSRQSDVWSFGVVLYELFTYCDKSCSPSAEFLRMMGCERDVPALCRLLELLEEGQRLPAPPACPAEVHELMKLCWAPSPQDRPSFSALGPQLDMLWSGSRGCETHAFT
The next series concerns the target JAK2 JH2 (Homo sapiens (Human), UniProt O60674). Put plainly: JAK2 JH2 binding (Kd, Table 2). The note with it: JH2 domain.
Another series concerns the target JAK2 JH1 (Homo sapiens (Human), UniProt O60674). Put plainly: JAK2 JH1 binding (Kd, Table 2). The note with it: JH1 domain.
The target of the next series is JAK1 JH1 (Homo sapiens (Human), UniProt P23458). Put plainly: JAK1 JH1 binding (Kd, Table 2). The note with it: JH1 domain.
JAK1 JH1, sequence (P23458 875-1153): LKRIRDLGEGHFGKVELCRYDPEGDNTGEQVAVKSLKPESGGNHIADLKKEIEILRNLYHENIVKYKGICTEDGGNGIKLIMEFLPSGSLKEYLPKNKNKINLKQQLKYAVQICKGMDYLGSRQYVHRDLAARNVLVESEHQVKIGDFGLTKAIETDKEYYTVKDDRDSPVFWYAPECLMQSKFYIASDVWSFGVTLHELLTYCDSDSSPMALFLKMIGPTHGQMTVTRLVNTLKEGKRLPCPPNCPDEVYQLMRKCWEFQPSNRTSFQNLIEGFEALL
The conditions of series [3]: cn_pd bond, 14-membered ring. The source holds these as a separate data set.

Like-named read-outs stand apart in the source and are kept apart here. Bounds are passed on as bounds.

JAK2 JH1, sequence (O60674 849-1124): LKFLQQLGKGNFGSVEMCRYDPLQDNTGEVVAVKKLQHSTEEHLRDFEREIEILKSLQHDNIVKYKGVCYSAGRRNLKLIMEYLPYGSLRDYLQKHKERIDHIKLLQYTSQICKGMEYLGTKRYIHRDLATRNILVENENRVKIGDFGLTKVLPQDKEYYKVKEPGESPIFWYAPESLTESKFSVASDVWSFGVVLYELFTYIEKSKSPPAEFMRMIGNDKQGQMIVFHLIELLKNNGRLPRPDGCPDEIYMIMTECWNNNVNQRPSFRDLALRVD
JAK2 JH2, sequence (O60674 545-809): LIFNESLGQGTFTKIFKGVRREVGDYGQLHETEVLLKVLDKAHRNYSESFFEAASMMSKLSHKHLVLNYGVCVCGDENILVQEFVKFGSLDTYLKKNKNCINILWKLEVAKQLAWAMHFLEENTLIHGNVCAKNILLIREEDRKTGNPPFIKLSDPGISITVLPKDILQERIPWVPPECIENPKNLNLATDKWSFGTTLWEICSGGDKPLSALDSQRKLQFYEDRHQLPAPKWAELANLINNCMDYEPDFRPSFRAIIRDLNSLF
TYK2 JH1, sequence (P29597 897-1176): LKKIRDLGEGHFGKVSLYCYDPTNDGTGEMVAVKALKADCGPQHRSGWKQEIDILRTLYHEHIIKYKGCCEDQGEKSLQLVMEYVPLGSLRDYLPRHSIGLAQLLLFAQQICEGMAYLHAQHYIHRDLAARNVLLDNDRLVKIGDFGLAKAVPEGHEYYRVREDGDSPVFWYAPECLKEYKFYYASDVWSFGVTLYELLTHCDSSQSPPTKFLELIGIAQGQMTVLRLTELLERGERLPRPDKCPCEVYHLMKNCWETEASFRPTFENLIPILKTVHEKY

In the case of `CNc1cc2nn3c(cnc13)C(=O)O[C@H](C)COCc1cc(c3nnn(C)c3c1)N2` [Compound 3, (7R,E)-3′,7-Dimethyl-1^8-(methylamino)-3^1H-5,8-dioxa-2-aza-1(6,3),3(4,6)-diimidazo[1,2-b]pyridazinacyclononaphan-9-one], the ring closure, isolated yield in series [1] (from CNc1cc(Cl)nn2c(C(=O)O[C@H](C)COCc3cc(N)c4nnn(C)c4c3)cnc12, Pd2(dba)3/BINAP/Cs2CO3, dioxane, 27.5 mM, 16.0 h) was 33%. The Kd in series [2] was less than 0.01 µM; at TYK2 JH1, not below 30 µM; on JAK1 JH2, 1 to 10 µM.
For `CNc1cc2nc3c(cnn13)C(=O)N[C@H](C)COCc1cc(c3nnn(C)c3c1)N2` [Compound 33], the Kd in [2] is less than 0.01 µM; at TYK2 JH1, not below 30 µM; on JAK3 JH1, not below 30 µM; on JAK2 JH2, not below 30 µM; on JAK2 JH1, not below 30 µM; on JAK1 JH2 it was 1 to 10 µM. In addition, the Kd at JAK1 JH1 was not below 30 µM.
As to `CNc1cc2nn3c(cnc13)C(=O)N[C@H](C)COCc1cc(c3c(c1)ncn3C)N2` [Compound 8, (7R,E)-3′,7-Dimethyl-1^8-(methylamino)-3^1H-5-oxa-2,8-diaza-1(6,3)-imidazo[1,2-b] pyridazina-3(7,5)-benzo[d]imidazolacyclononaphan-9-one], the Kd on TYK2 JH1 is 1 to 10 µM; on JAK3 JH1, 10 to 30 µM; at JAK2 JH2, 1 to 10 µM; on JAK2 JH1, not below 30 µM; on JAK1 JH2 it was 0.01 to 1 µM; on JAK1 JH1, not below 30 µM.
Turning to `[2H]C1([2H])OC[C@@H](C)NC(=O)c2cnc3c(NC)cc(nn23)Nc2cc1cc1c2nnn1C` [Compound 7, (7R,E)-3′,7-Dimethyl-1^8-(methylamino)-3^1H-5-oxa-2,8-diaza-1(6,3),3(4,6)-diimidazo[1,2-b]pyridazinacyclononaphan-9-one-4,4-d2], the Kd is less than 0.01 µM in series [2]; 1 to 10 µM on TYK2 JH1; 10 to 30 µM on JAK3 JH1; 1 to 10 µM on JAK2 JH2; not below 30 µM on JAK2 JH1; 0.01 to 1 µM at JAK1 JH2. For the same molecule, the Kd at JAK1 JH1 was not below 30 µM.
`COc1nc2cn3c(c(C)nc13)C(=O)N[C@H](C)COCc1cc(c3nnn(C)c3c1)N2` [Compound 72]: in series [3] (from COc1nc(Br)cn2c(C(=O)N[C@H](C)COCc3cc(N)c4nnn(C)c4c3)c(C)nc12, RuPhos Pd G3/Cs2CO3, 1,4-dioxane, 72.0 mM, 80.0 °C, 4.0 h), the ring closure, yield after HPLC amounted to 21%. In series [2], the Kd lay within 0.01 to 1 µM.
`Cc1nc2cnc3cn2c1C(=O)N[C@H](C)COCc1cc(c2nnn(C)c2c1)N3` [Compound 81] came in with a ring closure, yield after HPLC in [3] (from Cc1nc2cnc(Br)cn2c1C(=O)N[C@H](C)COCc1cc(N)c2nnn(C)c2c1, RuPhos Pd G3/Cs2CO3, dioxane, 80.0 °C) of 20%. Besides, the Kd in series [2] was 1 to 10 µM; on TYK2 JH1 it was not below 30 µM; on JAK1 JH2, not below 30 µM.
For `CNc1cc2nc3c(cnn13)C(=O)N[C@H](C)COCc1cc(c3c(c1)nnn3C)N2` [Compound 37], the dissociation constant (Kd) is less than 0.01 µM in [2]; not below 30 µM on TYK2 JH1; not below 30 µM on JAK3 JH1; not below 30 µM on JAK2 JH2; not below 30 µM on JAK2 JH1; 10 to 30 µM at JAK1 JH2. The Kd at JAK1 JH1 was not below 30 µM.
As for “tert-butyl N-methy 1-N-[(12R)-12-methyl-10-oxo-14-oxa-2,4,5,7,11,20-hexaazapentacyclo [13.6.2.2^{3,6}0.^{5,9}0.^{19,23}]pentacosa 1(21),3,6,8,15,17,19,22,24-nonaen-24-yl]carbamate”, in [1] (Pd2(dba)3/Xantphos, 1,4-dioxane, 34.0 mM, 80.0 °C), the ring closure, isolated yield is 66%.
Take `CNc1nc2cn3c(c(C)nc13)C(=O)N[C@H](C)COCc1cc(c3nnn(C)c3c1)N2` [Compound 78]: the ring closure, yield after HPLC in series [3] (from CNc1nc(Br)cn2c(C(=O)N[C@H](C)COCc3cc(N)c4nnn(C)c4c3)c(C)nc12, RuPhos Pd G3/Cs2CO3, 1,4-dioxane, 64.0 mM, 80.0 °C) was 11.3%. In addition, the Kd in series [2] lay within 1 to 10 µM.
In turn, “tert-butyl N-methyl-N-[(12R)-12-methyl-10-oxo-14-oxa-2,4,5,7,11,16-hexaazapentacyclo[13.6.2.2^(3,6.0^(5,9.0^(19,23]pentacosa-1(21),3,6,8,15,17,19,22,24-nonaen-24-yl]carbamate” displayed a ring closure, yield after HPLC in [3] (Pd2(dba)3/Xantphos/Cs2CO3, 1,4-dioxane, 50.0 mM, 80.0 °C) of 60%.
Take `CNc1nc2cnc3cn2c1C(=O)N[C@H](C)COCc1cc(c2nnn(C)c2c1)N3`: in [1] (from CNc1nc2cnc(Br)cn2c1C(=O)N[C@H](C)COCc1cc(N)c2nnn(C)c2c1, RuPhos Pd G3/Cs2CO3, dioxane, 62.0 mM, 100.0 °C, 16.0 h), the ring closure, isolated yield turned out to be 10%.
With `CNc1cc2nc3c(cnn13)C(=O)N[C@H](C)COCc1cc(c3nn(C)nc3c1)N2` [Compound 34], the Kd in series [2] was less than 0.01 µM; on TYK2 JH1, not below 30 µM; at JAK3 JH1 it was not below 30 µM; at JAK2 JH2, 10 to 30 µM; on JAK2 JH1 it was not below 30 µM; at JAK1 JH2, 0.01 to 1 µM. Further, on JAK1 JH1, the Kd is not below 30 µM.
Regarding “tert-butyl N-methyl-N-[(12R)-12-methyl-10-oxo-14-oxa-2,4,5,7,11,22-hexaazapentacyclo[13.6.2.2^(3,6.0^(5,9.0^(19,23]pentacosa-1(21),3,6,8,15,17,19,22,24-nonaen-24-yl]carbamate”, the ring closure, isolated yield in series [1] (Pd2(dba)3/Xantphos/Cs2CO3, 1,4-dioxane, 95.0 mM, 80.0 °C) is 86%.
Take “(14R)-19-[(4-methoxyphenyl)methyl]-21-([(4-methoxyphenyl)methyl](methyl)amino-7,14-dimethyl-12-oxa-2,5,6,7,15,18,19,22,23-nonaazapentacyclo[15.5.2.1^(3,10.0^(4,8.0^(20,24]pentacosa-1(23),3(25),4(8),5,9,17,20(24),21-octaen-16-one”: the ring closure, isolated yield in [1] (Pd2(dba)3/Xantphos/Cs2CO3, 1,4-dioxane, 36.5 mM, 100.0 °C) came to 74%.
The molecule `Cc1nc2c(N)nc3cn2c1C(=O)N[C@H](C)COCc1cc(c2nnn(C)c2c1)N3` [Compound 74] yielded a ring closure, yield after HPLC in series [3] (from Cc1nc2c(N)nc(Br)cn2c1C(=O)N[C@H](C)COCc1cc(N)c2nnn(C)c2c1, Pd2(dba)3/Xantphos/Cs2CO3, dioxane, 100.0 °C, 16.0 h) of 6.2%. In series [2], the Kd fell in the range of 0.01 to 1 µM.
`C[C@@H]1COCc2cc(c3nnn(C)c3c2)Nc2cn3c(cnc3c(N)n2)C(=O)N1` [Compound 73] gave a ring closure, yield after HPLC in [3] (from C[C@H](COCc1cc(N)c2nnn(C)c2c1)NC(=O)c1cnc2c(N)nc(Br)cn12, RuPhos Pd G3 (0.5 eq)/Cs2CO3, dioxane, 64.0 mM, 100.0 °C, 16.0 h) of 4.4%. Also, in series [2], the Kd lay in the range of 0.01 to 1 µM.

As a reminder, the Kd is the constant that tells how readily two partners part at equilibrium.
